From ChEMBL document CHEMBL4823305, “Design, synthesis and antibacterial evaluation of novel 3-O-substituted 15-membered azalides possessing 1,2,3-triazole side chains” (2021)
Values after ≈ are worked out from the molar mass of the structure shown.

Experiments:
Assay type in all cases: functional
Bacillus subtilis = experiment: Antibacterial activity against penicillin-susceptible Bacillus subtilis ATCC9372 by broth microdilution method
Staphylococcus aureus [1] = experiment: Antibacterial activity against penicillin-resistant Staphylococcus aureus by broth microdilution method
Enterococcus faecalis = experiment: Antibacterial activity against vancomycin-susceptible Enterococcus faecalis ATCC29212 by broth microdilution method
Klebsiella pneumoniae = experiment: Antibacterial activity against Klebsiella pneumoniae ATCC10031 by broth microdilution method
Staphylococcus aureus [2] = experiment: Antibacterial activity against erythromycin-susceptible Staphylococcus aureus ATCC25923 by broth microdilution method
Staphylococcus aureus [3] = experiment: Antibacterial activity against methicillin-resistant Staphylococcus aureus ATCC43300 by broth microdilution method
Enterococcus faecium = experiment: Antibacterial activity against clinical isolate erythromycin-resistant Enterococcus faecium by broth microdilution method
Staphylococcus aureus [4] = experiment: Bactericidal activity against methicillin-resistant Staphylococcus aureus ATCC43300
[5] = Ratio of MBC for bactericidal activity against methicillin-resistant Staphylococcus aureus ATCC43300 to MIC for antibacterial activity against methicillin-resistant Staphylococcus aureus ATCC43300 by broth microdilution method

SMILES | MIC (Bacillus subtilis) [µg/mL] | MIC (Staphylococcus aureus [1]) [µg/mL] | MIC (Enterococcus faecalis) [µg/mL] | MIC (Klebsiella pneumoniae) [µg/mL] | MIC (Staphylococcus aureus [2]) [µg/mL] | MIC (Staphylococcus aureus [3]) [µg/mL] | MIC (Enterococcus faecium) [µg/mL] | MBC (Staphylococcus aureus [4]) [µg/mL] | Ratio [5]
CC[C@H]1OC(=O)[C@H](C)[C@@H](OC(=O)NNC(=O)Cn2cc(-c3ccccc3)nn2)[C@H](C)[C@@H](O[C@@H]2O[C@H](C)C[C@H](N(C)C)[C@H]2O)[C@](C)(O)C[C@@H](C)CN(C)[C@H](C)[C@H]2OC(=O)O[C@@]21C | 128 (≈ 149 µM) | 256 (≈ 298 µM) | 16 (≈ 18.6 µM) | 32 (≈ 37.2 µM) | 32 (≈ 37.2 µM) | 256 (≈ 298 µM) | 64 (≈ 74.4 µM) | – | –
CC[C@H]1OC(=O)[C@H](C)[C@@H](O[C@H]2C[C@@](C)(OC)[C@@H](O)[C@H](C)O2)[C@H](C)[C@@H](O[C@@H]2O[C@H](C)C[C@H](N(C)C)[C@H]2O)[C@](C)(O)C[C@@H](C)CN(C)[C@H](C)[C@@H](O)[C@]1(C)O [AZITHROMYCIN] | < 0.25 | > 256 | 4 (≈ 5.34 µM) | 2 (≈ 2.67 µM) | < 0.25 | > 256 | 256 (≈ 342 µM) | – | –
CC[C@H]1OC(=O)[C@H](C)[C@@H](OC(=O)NNC(=O)Cn2cc(-c3ccc(F)cc3)nn2)[C@H](C)[C@@H](O[C@@H]2O[C@H](C)C[C@H](N(C)C)[C@H]2O)[C@](C)(O)C[C@@H](C)CN(C)[C@H](C)[C@H]2OC(=O)O[C@@]21C | 64 (≈ 72.9 µM) | 128 (≈ 146 µM) | 32 (≈ 36.4 µM) | 64 (≈ 72.9 µM) | 64 (≈ 72.9 µM) | 256 (≈ 292 µM) | 128 (≈ 146 µM) | – | –
CC[C@H]1OC(=O)[C@H](C)[C@@H](OC(=O)NNC(=O)Cn2cc(-c3ccc(Br)cc3)nn2)[C@H](C)[C@@H](O[C@@H]2O[C@H](C)C[C@H](N(C)C)[C@H]2O)[C@](C)(O)C[C@@H](C)CN(C)[C@H](C)[C@H]2OC(=O)O[C@@]21C | 32 (≈ 34.1 µM) | 128 (≈ 136 µM) | 32 (≈ 34.1 µM) | 64 (≈ 68.2 µM) | 32 (≈ 34.1 µM) | 64 (≈ 68.2 µM) | 64 (≈ 68.2 µM) | – | –
CC[C@H]1OC(=O)[C@H](C)[C@@H](O[C@H]2C[C@@](C)(OC)[C@@H](O)[C@H](C)O2)[C@H](C)[C@@H](O[C@@H]2O[C@H](C)C[C@H](N(C)C)[C@H]2O)[C@](C)(OC)C[C@@H](C)C(=O)[C@H](C)[C@@H](O)[C@]1(C)O [CLARITHROMYCIN] | < 0.25 | > 256 | 1 (≈ 1.34 µM) | 4 (≈ 5.35 µM) | < 0.25 | > 256 | 256 (≈ 342 µM) | – | –
CC[C@H]1OC(=O)[C@H](C)[C@@H](OC(=O)NNC(=O)Cn2cc(-c3ccccc3Cl)nn2)[C@H](C)[C@@H](O[C@@H]2O[C@H](C)C[C@H](N(C)C)[C@H]2O)[C@](C)(O)C[C@@H](C)CN(C)[C@H](C)[C@H]2OC(=O)O[C@@]21C | 64 (≈ 71.6 µM) | 256 (≈ 286 µM) | 64 (≈ 71.6 µM) | 32 (≈ 35.8 µM) | 32 (≈ 35.8 µM) | 128 (≈ 143 µM) | 64 (≈ 71.6 µM) | – | –
CCCOc1ccc(-c2cn(CC(=O)NNC(=O)O[C@H]3[C@H](C)[C@@H](O[C@@H]4O[C@H](C)C[C@H](N(C)C)[C@H]4O)[C@](C)(O)C[C@@H](C)CN(C)[C@H](C)[C@H]4OC(=O)O[C@]4(C)[C@@H](CC)OC(=O)[C@@H]3C)nn2)cc1 | 32 (≈ 34.9 µM) | 64 (≈ 69.7 µM) | 16 (≈ 17.4 µM) | 32 (≈ 34.9 µM) | 16 (≈ 17.4 µM) | 64 (≈ 69.7 µM) | 64 (≈ 69.7 µM) | – | –
CC[C@H]1OC(=O)[C@H](C)[C@@H](OC(=O)NNC(=O)Cn2cc(-c3cccc(N)c3)nn2)[C@H](C)[C@@H](O[C@@H]2O[C@H](C)C[C@H](N(C)C)[C@H]2O)[C@](C)(O)C[C@@H](C)CN(C)[C@H](C)[C@H]2OC(=O)O[C@@]21C | > 128 | > 256 | > 128 | 128 (≈ 146 µM) | 128 (≈ 146 µM) | > 256 | 128 (≈ 146 µM) | – | –
CCc1ccc(-c2cn(CC(=O)NNC(=O)O[C@H]3[C@H](C)[C@@H](O[C@@H]4O[C@H](C)C[C@H](N(C)C)[C@H]4O)[C@](C)(O)C[C@@H](C)CN(C)[C@H](C)[C@H]4OC(=O)O[C@]4(C)[C@@H](CC)OC(=O)[C@@H]3C)nn2)cc1 | 32 (≈ 36 µM) | 64 (≈ 72.1 µM) | 32 (≈ 36 µM) | 16 (≈ 18 µM) | 16 (≈ 18 µM) | 64 (≈ 72.1 µM) | 32 (≈ 36 µM) | – | –
CC[C@H]1OC(=O)[C@H](C)[C@@H](OC(=O)NNC(=O)Cn2cc(-c3cccc([N+](=O)[O-])c3)nn2)[C@H](C)[C@@H](O[C@@H]2O[C@H](C)C[C@H](N(C)C)[C@H]2O)[C@](C)(O)C[C@@H](C)CN(C)[C@H](C)[C@H]2OC(=O)O[C@@]21C | 128 (≈ 141 µM) | 256 (≈ 283 µM) | 32 (≈ 35.4 µM) | 32 (≈ 35.4 µM) | 64 (≈ 70.7 µM) | 256 (≈ 283 µM) | 128 (≈ 141 µM) | – | –
CC[C@H]1OC(=O)[C@H](C)[C@@H](OC(=O)NNC(=O)Cn2cc(-c3ccccc3OC)nn2)[C@H](C)[C@@H](O[C@@H]2O[C@H](C)C[C@H](N(C)C)[C@H]2O)[C@](C)(O)C[C@@H](C)CN(C)[C@H](C)[C@H]2OC(=O)O[C@@]21C | 128 (≈ 144 µM) | 256 (≈ 288 µM) | 64 (≈ 71.9 µM) | 64 (≈ 71.9 µM) | 64 (≈ 71.9 µM) | 256 (≈ 288 µM) | 128 (≈ 144 µM) | – | –
CC[C@H]1OC(=O)[C@H](C)[C@@H](OC(=O)NNC(=O)Cn2cc(-c3ccc(C)cc3)nn2)[C@H](C)[C@@H](O[C@@H]2O[C@H](C)C[C@H](N(C)C)[C@H]2O)[C@](C)(O)C[C@@H](C)CN(C)[C@H](C)[C@H]2OC(=O)O[C@@]21C | 64 (≈ 73.2 µM) | 256 (≈ 293 µM) | 32 (≈ 36.6 µM) | 16 (≈ 18.3 µM) | 32 (≈ 36.6 µM) | 256 (≈ 293 µM) | 64 (≈ 73.2 µM) | – | –
CCCc1ccc(-c2cn(CC(=O)NNC(=O)O[C@H]3[C@H](C)[C@@H](O[C@@H]4O[C@H](C)C[C@H](N(C)C)[C@H]4O)[C@](C)(O)C[C@@H](C)CN(C)[C@H](C)[C@H]4OC(=O)O[C@]4(C)[C@@H](CC)OC(=O)[C@@H]3C)nn2)cc1 | 16 (≈ 17.7 µM) | 64 (≈ 70.9 µM) | 8 (≈ 8.87 µM) | 16 (≈ 17.7 µM) | 16 (≈ 17.7 µM) | 64 (≈ 70.9 µM) | 32 (≈ 35.5 µM) | – | –
CC[C@H]1OC(=O)[C@H](C)[C@@H](OC(=O)NNC(=O)Cn2cc(-c3cccc(Cl)c3)nn2)[C@H](C)[C@@H](O[C@@H]2O[C@H](C)C[C@H](N(C)C)[C@H]2O)[C@](C)(O)C[C@@H](C)CN(C)[C@H](C)[C@H]2OC(=O)O[C@@]21C | 64 (≈ 71.6 µM) | 256 (≈ 286 µM) | 16 (≈ 17.9 µM) | 16 (≈ 17.9 µM) | 64 (≈ 71.6 µM) | 128 (≈ 143 µM) | 64 (≈ 71.6 µM) | – | –
CCOc1ccc(-c2cn(CC(=O)NNC(=O)O[C@H]3[C@H](C)[C@@H](O[C@@H]4O[C@H](C)C[C@H](N(C)C)[C@H]4O)[C@](C)(O)C[C@@H](C)CN(C)[C@H](C)[C@H]4OC(=O)O[C@]4(C)[C@@H](CC)OC(=O)[C@@H]3C)nn2)cc1 | 64 (≈ 70.8 µM) | 128 (≈ 142 µM) | 16 (≈ 17.7 µM) | 32 (≈ 35.4 µM) | 32 (≈ 35.4 µM) | 128 (≈ 142 µM) | 128 (≈ 142 µM) | – | –
CC[C@H]1OC(=O)[C@H](C)[C@@H](OC(=O)NNC(=O)Cn2cc(-c3ccc(C(C)(C)C)cc3)nn2)[C@H](C)[C@@H](O[C@@H]2O[C@H](C)C[C@H](N(C)C)[C@H]2O)[C@](C)(O)C[C@@H](C)CN(C)[C@H](C)[C@H]2OC(=O)O[C@@]21C | 16 (≈ 17.5 µM) | 32 (≈ 34.9 µM) | 4 (≈ 4.37 µM) | 16 (≈ 17.5 µM) | 16 (≈ 17.5 µM) | 32 (≈ 34.9 µM) | 16 (≈ 17.5 µM) | > 256 | >8
CC[C@H]1OC(=O)[C@H](C)[C@@H](OC(=O)NNC(=O)Cn2cc(-c3cccc(Br)c3)nn2)[C@H](C)[C@@H](O[C@@H]2O[C@H](C)C[C@H](N(C)C)[C@H]2O)[C@](C)(O)C[C@@H](C)CN(C)[C@H](C)[C@H]2OC(=O)O[C@@]21C | 64 (≈ 68.2 µM) | 256 (≈ 273 µM) | 32 (≈ 34.1 µM) | 32 (≈ 34.1 µM) | 64 (≈ 68.2 µM) | 128 (≈ 136 µM) | 128 (≈ 136 µM) | – | –
CC[C@H]1OC(=O)[C@H](C)[C@@H](OC(=O)NNC(=O)Cn2cc(-c3cccc(F)c3)nn2)[C@H](C)[C@@H](O[C@@H]2O[C@H](C)C[C@H](N(C)C)[C@H]2O)[C@](C)(O)C[C@@H](C)CN(C)[C@H](C)[C@H]2OC(=O)O[C@@]21C | 64 (≈ 72.9 µM) | 256 (≈ 292 µM) | 32 (≈ 36.4 µM) | 64 (≈ 72.9 µM) | 32 (≈ 36.4 µM) | 256 (≈ 292 µM) | 128 (≈ 146 µM) | – | –
CC[C@H]1OC(=O)[C@H](C)[C@@H](OC(=O)NNC(=O)Cn2cc(-c3ccc(OC)cc3)nn2)[C@H](C)[C@@H](O[C@@H]2O[C@H](C)C[C@H](N(C)C)[C@H]2O)[C@](C)(O)C[C@@H](C)CN(C)[C@H](C)[C@H]2OC(=O)O[C@@]21C | 128 (≈ 144 µM) | 256 (≈ 288 µM) | 64 (≈ 71.9 µM) | 32 (≈ 36 µM) | 64 (≈ 71.9 µM) | 256 (≈ 288 µM) | 128 (≈ 144 µM) | – | –
CC[C@H]1OC(=O)[C@H](C)[C@@H](OC(=O)NNC(=O)Cn2cc(-c3ccc(-c4ccccc4)cc3)nn2)[C@H](C)[C@@H](O[C@@H]2O[C@H](C)C[C@H](N(C)C)[C@H]2O)[C@](C)(O)C[C@@H](C)CN(C)[C@H](C)[C@H]2OC(=O)O[C@@]21C | 16 (≈ 17.1 µM) | 32 (≈ 34.2 µM) | 8 (≈ 8.55 µM) | 32 (≈ 34.2 µM) | 16 (≈ 17.1 µM) | 32 (≈ 34.2 µM) | 16 (≈ 17.1 µM) | > 256 | >8
CC[C@H]1OC(=O)[C@H](C)[C@@H](OC(=O)NNC(=O)Cn2cc(-c3cccc(C)c3)nn2)[C@H](C)[C@@H](O[C@@H]2O[C@H](C)C[C@H](N(C)C)[C@H]2O)[C@](C)(O)C[C@@H](C)CN(C)[C@H](C)[C@H]2OC(=O)O[C@@]21C | 64 (≈ 73.2 µM) | 256 (≈ 293 µM) | 32 (≈ 36.6 µM) | 16 (≈ 18.3 µM) | 64 (≈ 73.2 µM) | 128 (≈ 146 µM) | 128 (≈ 146 µM) | – | –
